Data as given in patent publication US20090111781A1, “Use of Cymipristone Type Compounds in Aids Treatment” (SHANGHAI THREE-ALLIANCE BIOTECHNOLOGIES CO., LTD., priority 2005, published 2009).
Values after ≈ are worked out from the molar mass of the structure shown. Values joined by “and” are separate entries in the source; they are usually repeats but may differ in a detail not shown here. Equal values may be shown once.

Legend:
[1] = Cytotoxicity in MT-4 cell culture by cytopathic method (CPE); type: cell-based, human; conditions: human, MT-4 cells infected with HIV-1 IIIB, read-out: Cytotoxicity TC50, CPE
Protocol: (§1) Set virus TCID50 determination group and cell control group. Each concentration is duplicated in two pore. Incubate under 37° C., 5% CO2 and saturated humidity in an incubator. Daily observe the cytopathy in above culture plate by microscope, record the degree of cytopathy with routine method, and calculate the 50% toxic concentration (TC50) and maximum nontoxic concentration (TC0) of drug according to Reed & Muench method. […] [formula]

[2] = system: MT-4 cells; experiment: as above; type: cell-based, human
Protocol: as §1

[3] = MTT toxicity on PBMC infected by HIV-1 AZT-sensitive strain 018a; conditions: human, PBMC, 018a
Protocol: Collect cells with curette, infect cells with 10^−2 AZT sensitive (018a) or AZT resistant (018c) virus strain liquid, and adsorb for 2 hours, Wash off unabsorbed virus with 1640 culture medium without serum, prepare cells infected by virus to 1×10^6/ml with culture solution, and inoculate on 96-pore culture plate, 100 μl/pore. […] Set cell control group and virus infected cell control group. Incubate under 37° C. and 5% CO2. On the fourth day (96 hours), pipette out the supernatant liquid and store under −20° C. for determination of HIV-1 P24 antigen titer and calculation of drug inhibitory action. Add MTT staining to cells for determination of cytotoxicity. Determination of cytotoxicity by MTT staining: Add 10 μl of 5 mg/ml MTT stain into each pore, continue to incubate under 37° C., 5% CO2 and saturated humidity for 4 hours. […] Determine the HIV-1 P24 antigen titer according to the operation procedure provided by the HIV-1 P24 antigen reagent kit. Compare the drug-added group with virus control group. […] Calculation method of 50% toxic concentration (CC50), 50% effective concentration (EC50) and selection index (SI): […]

[4] = target: T1, human glucocorticoid receptor (Homo sapiens, UniProt P04150); experiment: Antagonism on dexamethasone in CV-1 cells cotransfected with GR and luciferase reporter; type: cell-based
T1 construct: expressed in transfected cells; host or cells: CV-1 cells
T1 sequence (P04150 1-777): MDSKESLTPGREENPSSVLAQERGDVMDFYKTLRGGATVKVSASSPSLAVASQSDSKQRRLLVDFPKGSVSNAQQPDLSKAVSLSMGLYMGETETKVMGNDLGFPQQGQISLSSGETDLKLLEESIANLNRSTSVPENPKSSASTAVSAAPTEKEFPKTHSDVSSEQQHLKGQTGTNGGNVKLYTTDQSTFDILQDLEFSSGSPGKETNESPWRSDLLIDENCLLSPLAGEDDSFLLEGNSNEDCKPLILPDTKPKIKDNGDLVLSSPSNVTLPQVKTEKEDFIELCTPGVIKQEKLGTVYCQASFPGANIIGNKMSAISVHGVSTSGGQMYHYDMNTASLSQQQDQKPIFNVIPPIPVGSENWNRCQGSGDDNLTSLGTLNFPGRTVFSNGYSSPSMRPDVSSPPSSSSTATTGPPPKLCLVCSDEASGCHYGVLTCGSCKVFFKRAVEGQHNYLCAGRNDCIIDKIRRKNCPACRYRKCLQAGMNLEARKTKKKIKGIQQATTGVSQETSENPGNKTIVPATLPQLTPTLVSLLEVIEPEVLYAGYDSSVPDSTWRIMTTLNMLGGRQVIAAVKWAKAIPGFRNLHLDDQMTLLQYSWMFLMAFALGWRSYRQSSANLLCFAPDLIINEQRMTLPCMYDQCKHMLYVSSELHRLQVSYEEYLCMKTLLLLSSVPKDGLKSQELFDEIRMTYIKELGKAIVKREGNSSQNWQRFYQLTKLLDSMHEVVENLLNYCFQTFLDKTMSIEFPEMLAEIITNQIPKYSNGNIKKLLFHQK
Protocol: Inoculate (6×10^5) of CV-1 cells into cell culture dish of 60 mm diameter using phenol red-free low-sugar DMEM containing 10% FBS as culture medium and incubate overnight under 37° C. and 5% CO2. Suction according to 1:5 ratio pipet 2 μg of plasmid carried GR genes and luciferase reporting genes, cotransfect CV-1 cells with FuGene 6 transfection reagent (from Roche), and incubate for 8 hours under above conditions, Inoculate the transfected cells into 96-pore micro culture plate, 8000 cells/100 μl/pore, and incubate cells to adhibit on the wall of dish. […] Discard the culture liquid, wash the cells twice with PBS, and pipet off all residual PBS. fragment the cells by CCLR Assay Kit (from Progema) for 15 min. Add 20 μl of fragmentation solution into 96 pore cell culture plate with white edge and white bottom, add CCLR substrate (from Progema), 100 μl/pore, and immediately detect the chemical luminescence count value caused by activated luciferase on Wallac 1420 Multilabel Counter.

[5] = system: HIV-1 IIIB P24 antigen; experiment: microbe, parasite or virus in culture; type: cell-based; conditions: for Selection index (SI): MT-4
Protocol: (1) Inoculate MT4 cells into 96-pore cell culture plate, 1×10^5 cells/ml, infect with HIV-1-IIIB virus strain of about 100TCID50, and add cymipristone solution at the same time, its concentration is below 100 μg/ml, triply diluted to 8 concentrations. Set virus TCID50 determination group and cell control group. Each concentration is duplicated in two pore. Incubate under 37° C., 5% CO2 and saturated humidity in an incubator.
Daily observe the cytopathy in above culture plate by microscope, record the degree of cytopathy with routine method, and calculate the 50% toxic concentration (TC50) and maximum nontoxic concentration (TC0) of drug according to Reed & Muench method. (3) Determination on HIV-1 P24 Antigen with Supernatant Liquid Pipetted from Cell Culture Plate Added Drug After 4 days (96 hours), pipette out the supernatant liquid from cell culture added drug and freeze HIV-1 P24 antigen used for determination.
Take the supernatant liquid on the fourth day, combine the liquid from two pore, and dilute by 1:100, Determine the HIV-1 P24 antigen titer (OD value) by ELISA method according to the instruction of HIV-1 P24 antigen reagent kit. […] At the same time, determine the 50% infection concentration of HIV-1/IIIB virus strain in MT-4 cells and virus infection quantity (TCID50).
(1) Calculation of TC50, IC50 and SI of Drug in Cell Culture According to Reed & Muench Method

[6] = Human immunodeficiency virus 1, IIIB, MT4, read-out: Inhibition rate on HIV-1 P24 antigen

With `CC#C[C@]1(O)CC[C@H]2[C@@H]3CCC4=CC(=O)CCC4=C3[C@@H](c3ccc(N(C)C4CCCCC4)cc3)C[C@@]21C` [Cymipristone, 11β-[4-(N-methyl-N-cyclohexylamino)phenyl]-17α-(1-propynyl)-17β-hydroxyl-4,9-estradiene-3-one] the CC50 [1] was 15.5 µM, the “Cytotoxicity TC50, CPE” value [2] was 7.704 µg/mL and the CC50 at 96 h ([3]; 50% toxic concentration CC50, Average) was 130 µg/mL (≈ 261 µM). The CC50 at 96 h ([3]; 50% toxic concentration CC50, Experiment 1) was 104 µg/mL (≈ 208 µM), the CC50 at 96 h ([3]; 50% toxic concentration CC50, Experiment 2) was 156 µg/mL (≈ 314 µM) and the IC50 [4] was 0.00026 ± 2e-05 µM. For the same compound, the “Antagonistic activity on human glucocorticoid receptor function caused by dexamethasone (in words)” value ([4]; gene cotransfected live cells) was “significant antagonistic activity”, the IC50 ([5]; Human immunodeficiency virus 1, IIIB, MT4, read-out: IC50 on HIV-1 IIIB P24 antigen) was 1.3 µg/mL and 2.62 µM and the inhibition at 0.05 µg/mL [5, 6] was 14%. The inhibition at 0.14 µg/mL [5, 6] was 17%, the inhibition at 0.41 µg/mL [5, 6] was 13% and the inhibition at 1.23 µg/mL [5, 6] was 29%. The inhibition at 3.7 µg/mL [5, 6] was 93%, the “Selection index (SI)” value ([5]; SI=TC50/IC50, CPE cytotoxicity) was 5.93 and the “Selection index (SI)” value ([5]; SI=TC50/IC50, MTT cytotoxicity) was 23.28. For the same compound, the “Effect on HIV-1 P24 antigen formation in MT-4 cell culture (in words)” value ([5]; conclusion) was “significant inhibitory effect”.
